Assay [1] concerns the target T1, MAO-A (Mus musculus, UniProt Q64133).
T1 construct: 20 μg of mouse whole brain or human brain homogenate; from tissue; host or cells: mouse whole brain homogenate
T1 sequence (Q64133 1-526): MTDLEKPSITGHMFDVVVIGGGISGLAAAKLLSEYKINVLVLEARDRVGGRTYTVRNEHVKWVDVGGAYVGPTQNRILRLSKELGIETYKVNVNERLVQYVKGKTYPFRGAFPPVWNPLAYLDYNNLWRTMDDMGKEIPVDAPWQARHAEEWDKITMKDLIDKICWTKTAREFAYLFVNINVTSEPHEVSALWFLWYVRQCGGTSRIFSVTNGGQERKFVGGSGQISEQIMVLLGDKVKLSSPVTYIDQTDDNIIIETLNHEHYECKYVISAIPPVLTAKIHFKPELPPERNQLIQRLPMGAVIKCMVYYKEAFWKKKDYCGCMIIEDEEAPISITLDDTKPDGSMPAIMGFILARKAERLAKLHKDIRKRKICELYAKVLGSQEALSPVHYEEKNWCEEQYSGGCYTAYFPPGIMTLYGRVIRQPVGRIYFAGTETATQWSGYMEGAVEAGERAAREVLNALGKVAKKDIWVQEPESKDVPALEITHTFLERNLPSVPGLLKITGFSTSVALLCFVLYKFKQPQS
Briefly: Binding affinity to MAO-A in mouse whole brain homogenate (3H-Harmine competition). Further details: key to Low affinity to MAO A (IC50 in mouse brain homogenate), grade: − poor; ∘ moderate; + good; ++ very good; +++ excellent. As to conditions: for IC50: 3H-Harmine competition. As to the method: Determination of the Binding Affinity to MAO-A in HC Brain Homogenate
(§1) 20 μg of mouse whole brain or human brain homogenate (without AD pathology, HC) was incubated with a dilution series of each test compound (1000 to 0.06 nM) in the presence of 700 Bq of ^3H-labeled MAO-A binder Harmine. The samples were shaken at 110 rpm for 60 min at 37° C. Samples were then filtered through GF/B 96 well filter plates and washed twice with 200 μL assay buffer (PBS containing 0.1% BSA and 2% DMSO). Thereafter, 40 μL Szintillation cocktail was added and the filter plates were sealed. The counts were then counted using a TopCount (Perkin Elmer). Non-specific signal was determined with samples containing ^3H-Harmine in the presence of assay buffer without brain substrate and competitor. Specific binding was calculated by subtracting the non-specific signal from the measured samples signal. The unblocked ^3H-Harmine signal was defined as total binding. IC50 values were calculated by Prism V7 (GraphPad) setting total binding to 100%.

For assay [2], the target named is T2, MAO-B (Homo sapiens, UniProt P27338).
T2 construct: 20 μg of human brain homogenate (without AD pathology); from tissue; host or cells: human brain homogenate without AD pathology
T2 sequence (P27338 1-520): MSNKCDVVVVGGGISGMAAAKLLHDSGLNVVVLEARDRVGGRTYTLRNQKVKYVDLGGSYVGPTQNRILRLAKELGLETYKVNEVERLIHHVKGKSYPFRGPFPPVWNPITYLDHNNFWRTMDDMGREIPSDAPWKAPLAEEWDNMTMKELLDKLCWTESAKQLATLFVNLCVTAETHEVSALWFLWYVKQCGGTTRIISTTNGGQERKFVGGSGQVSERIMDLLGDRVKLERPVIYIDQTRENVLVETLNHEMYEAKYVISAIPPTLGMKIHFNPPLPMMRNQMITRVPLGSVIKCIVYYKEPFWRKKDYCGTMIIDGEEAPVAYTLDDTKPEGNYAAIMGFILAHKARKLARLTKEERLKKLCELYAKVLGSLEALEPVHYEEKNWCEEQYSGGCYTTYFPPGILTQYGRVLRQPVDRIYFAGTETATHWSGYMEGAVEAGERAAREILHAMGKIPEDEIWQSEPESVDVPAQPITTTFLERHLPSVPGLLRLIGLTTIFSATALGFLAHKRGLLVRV
Put plainly: Binding affinity to MAO-B in human HC brain homogenate (3H-deprenyl competition). The arrangement: key to Low affinity to MAO B (IC50 in human HC brain homogenate), grade: − poor; ∘ moderate; + good; ++ very good; +++ excellent. The conditions noted are these: for IC50: 3H-deprenyl competition. As to the method:
Determination of the Binding Affinity to MAO-B in HC Brain Homogenate
as §1, with “of” for “of mouse whole brain or”, “pathology)” for “pathology, HC)”, “MAO-B” for “MAO-A”, “Deprenyl.” for “Harmine.”, “^3H-deprenyl” for “^3H-Harmine”

The target in assay [3] is T3, aggregated recombinant human K18 fibrils (Homo sapiens, UniProt P10636).
T3 construct: aggregated recombinant human K18 fibrils
T3 sequence (P10636 561-685 limits assumed): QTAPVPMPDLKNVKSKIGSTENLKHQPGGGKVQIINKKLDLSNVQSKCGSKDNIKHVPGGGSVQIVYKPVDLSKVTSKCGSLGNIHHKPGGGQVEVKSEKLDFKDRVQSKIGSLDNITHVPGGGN
Briefly: Binding affinity to K18 Tau aggregates (3H-labeled Tau binder competition). The arrangement: key to High affinity to Tau (IC50 using K18 Tau aggregates), grade: − poor; ∘ moderate; + good; ++ very good; +++ excellent. The conditions noted are these: non-radioactive fluorine-19 derivatives; for IC50: read-out: IC50 using K18 Tau aggregates. As to the method: Determination of the Binding Affinity to K18 Tau Aggregates
200 ng of aggregated recombinant human K18 fibrils were incubated with a dilution series of each test compound (1000 to 0.06 nM) in the presence of 3 nM of ^3H-labeled Tau binder. The samples were shaken at 110 rpm for 60 min at 37° C. Samples were then filtered through GF/B 96 well filter plates and washed twice with 200 μL assay buffer (PBS containing 0.1% BSA and 2% DMSO). Thereafter, 40 μL of MicroScint 40 was added to each well of the filter plate. Filter plates were sealed and then placed shaking at 110 rpm at 37° C. for 15 min. Measurement was done by TopCount NXT HTS (PerkinElmer). Non-specific signal was determined with samples containing ^3H-labeled Tau binder in the presence of 2.5 μM unlabeled Tau-reference binder and K18 fibrils. Specific binding was calculated by subtracting the non-specific signal from the measured samples signal. The unblocked ^3H-labeled Tau-binder signal was defined as total binding. IC50 values were calculated by Prism V7 (GraphPad) setting total binding to 100%.

Assay [4] is described as follows: Tracer signal in HC brain homogenate compared to AD brain homogenate. In kind it is binding, human. Further details: key to Signal to noise (% signal intensity in HC brain homogenate compared to tracer signal in AD brain homogenate), grade: − poor; ∘ moderate; + good; ++ very good; +++ excellent.
Assay [5] can be described thus: Tracer signal in mouse brain homogenate compared to AD brain homogenate. Type of assay: binding. Further details: key to High signal to noise (% signal intensity in mouse brain homogenate compared to tracer signal in AD brain homogenate), grade: − poor; ∘ moderate; + good; ++ very good; +++ excellent. As to conditions: radioactive fluorine-18 derivatives.
Where [6] appears, read: radioactive fluorine-18 derivatives.

Where only a bound is given, the exact number is not on record here.

Turning to `Fc1ccc(-c2ccc3c(c2)[nH]c2ccncc23)cn1` [F-1, reference compound], the IC50 in assay [1] (mouse brain homogenate) was 4.6 nM; in assay [2] (human HC brain homogenate), 78 nM.
`Fc1cc(-c2ccc3c(c2)[nH]c2ccncc23)ccn1` [F-2]: the IC50 is 51.4 nM in assay [1] (mouse brain homogenate) and 778 nM in assay [2] (human HC brain homogenate).
For the compound `[18F]c1ccc(-c2ccc3c(c2)[nH]c2ccncc23)cn1` [^18F-1, reference compound], the IC50 in assay [3] is 19.6 nM; in assay [1] (mouse brain homogenate) it was 4.6 nM; in assay [2] (human HC brain homogenate) it was 78 nM.
Regarding `[18F]c1cc(-c2ccc3c(c2)[nH]c2ccncc23)ccn1` [^18F-2], in assay [3] (K18 Tau aggregates), the “High affinity to Tau (IC50 using K18 Tau aggregates), grade” value is reported as “++”. Further, the IC50 in assay [3] is 3 nM. In assay [1] (mouse brain homogenate), the “Low affinity to MAO A (IC50 in mouse brain homogenate), grade” value is given as “∘” and the IC50 came to 51.4 nM. Further, the “fold higher IC50 than compound 18F-1, MAO A in whole mouse brain homogenate” value in assay [1] (ratio to 18F-1) worked out at 11 fold. Further, in assay [2] (human HC brain homogenate), the “Low affinity to MAO B (IC50 in human HC brain homogenate), grade” value was “++” and the IC50 is 778 nM. For the same compound, the “fold higher IC50 than compound 18F-1, MAO B in HC brain homogenate” value in assay [2] (ratio to 18F-1) is recorded as more than 10 fold. Besides, the “less relative signal in HC brain homogenate ratio than 18F-1” value in assay [4] (binding in AD brain homogenate and HC brain homogenate, difference to 18F-1) worked out at 19%. Moreover, in assay [4] (setting [6]), the “% signal intensity in HC brain homogenate compared to tracer signal in AD brain homogenate” value is reported as “(66%)” and the “Signal to noise (% signal intensity in HC brain homogenate compared to tracer signal in AD brain homogenate), grade” value is “∘”. Moreover, in assay [5], the “% signal intensity in mouse brain homogenate compared to tracer signal in AD brain homogenate” value was “(57%)” and the “High signal to noise (% signal intensity in mouse brain homogenate compared to tracer signal in AD brain homogenate), grade” value was “+”.

The IC50 is the concentration that gives 50% inhibition.

Values taken from US11306089B2, “Gamma-carboline compounds for the detection of Tau aggregates” (AC IMMUNE SA, priority 2018, dated 2022).
